The text below walks through data of patent publication EP2221291B1, “CYCLOHEXENONE COMPOUNDS FROM ANTRODIA CAMPHORATA AND PHARMACEUTICAL COMPOSITIONS THEREOF USEFUL FOR TREATING AUTOIMMUNE DISEASES” (Golden Biotechnology Corporation, priority 2007, dated 2009).

Test [1] deals with female NZB/WF1 SLE mice. Description: Changes of proteinuria in SLE mouse model (Bio-Rad protein assay of urine). Format: in vivo. Particulars: for proteinuria level: after 6 weeks of experiment, oral once per day (cyclohexenone compounds 50 mg/kg; prednisolone 1.25 mg/kg), negative control 89.16 vs. 246 mg/dl. How it is done: (§1) Female NZB/WF1 mice spontaneously develop human SLE-like syndromes, such as generation of antinuclear autoantibodies, proteinuria, and renal toxicity to cause death. The disease is more severe in female mice than in male mice; the morbidity of female mice is also higher than that of male mice. Therefore, female NZB/WF1 mice were used for screening anti-SLE drugs in this study.
(§2) Thirty female NZB/WF1 mice (purchased from Jackson Lab, USA) between 12-24 weeks of age were analyzed biweekly to determine proteinuria levels, monthly to assess the titers of antinuclear autoantibody (ANA). The increased titers of ANA and positive response implicated that female NZB/WF1 mice were going to develop SLE and were ready for grouping. At 22 weeks of age, the animals showing the abovementioned syndromes were randomly divided into 3 groups (10 mice per group, water was administered to negative control group, steroid was given to positive control group, and cyclohexenone compounds of Antrodia camphorata was administered to experiment group), and the start time for the experiment was set as week zero. In addition, ten B6 mice (purchased from National Laboratory Animal Center, Taiwan) without SLE syndrome were normal mice served as blank group. Table 1 Treatment of animal groups
The blank group in Table 1 was B6 mice of no SLE syndrome, which received no treatment and normal diet for natural growth. NZB/WF1 female mice that were able to express SLE syndromes were served in negative control and positive control groups. Mice in the former group received normal water; in the latter were orally medicated with 1.25 mg/kg of prednisolone, the SLE drug. Mice in the experiment group were orally medicated with 50 mg/kg of cyclohexenone compounds from Example 1. […]
SLE patients develop renal inflammation and damage, which cause leakage of protein from kidney into the fluid. […] Ten µl of urine was assayed with Bio-Rad Protein Assay Dye Reagent Concentrate (Bio-Rad Laboratories, USA) and read under […] with an ELISA analyzer to determine the protein concentration with a standard curve.

Test [2] deals with anti-dsDNA antinuclear antibodies in female NZB/WF1 SLE mice. Description: Titers of anti-dsDNA antinuclear antibodies in plasma of SLE mouse model (Mouse Anti-dsDNA IgG ELISA). Particulars: for titer of anti-dsDNA antinuclear antibodies decreased to: week 8, oral once per day (cyclohexenone compounds 50 mg/kg; prednisolone 1.25 mg/kg), reference of the percentage not stated. It counts as in vivo. How it is done: as §1, §2
The blank group in Table 1 was B6 mice of no SLE syndrome, which received no treatment and normal diet for natural growth. NZB/WF1 female mice that were able to express SLE syndromes were served in negative control and positive control groups. Mice in the former group received normal water; in the latter were orally medicated with 1.25 mg/kg of prednisolone, the SLE drug. Mice in the experiment group were orally medicated with 50 mg/kg of cyclohexenone compounds from Example 1. The mice were fed with the abovementioned substances once per day starting at 23 weeks of age, and this period of time was referred to as the first week of this experiment. […]
The titers of dsDNA antinuclear antibodies were determined in this study to assess the effects of cyclohexenone compounds from Antrodia camphorata on SLE mice. […]

Compound `COC1=C(OC)C(O)C(CC=C(C)CCC=C(C)CCC=C(C)C)C(C)C1=O` (stereo not drawn) [4-hydroxy-2,3-dimethoxy-6-methyl-5(3,7,11-trimethyl-dodeca-2,6,10-trienyl)-cyclohex-2-enone] displayed a proteinuria level in test [1] of 118.2 mg/dL. Besides, the “increase in proteinuria level than that before experiment” value in test [1] (after 6 weeks, oral 50 mg/kg once per day, negative control 2.76-fold) is 1.3 fold. Also, the “titers of anti-dsDNA antinuclear antibodies compared with negative group” value in test [2] (during 8 weeks of experiment, oral 50 mg/kg once per day) is reported as “significantly lower titers”. Also, in test [2], the “titer of anti-dsDNA antinuclear antibodies decreased to” value is on record as 34%.
In test [1], `C[C@]12C=CC(=O)C=C1CC[C@@H]1[C@@H]2[C@@H](O)C[C@@]2(C)[C@H]1CC[C@]2(O)C(=O)CO` [prednisolone, reference compound] came in with a proteinuria level of 32.6 mg/dL. In addition, in test [2], the “titer of anti-dsDNA antinuclear antibodies decreased to” value is recorded as “around 50%”.
